Patent US20220259235A1, “EGFR Inhibitor, Composition, and Preparation Method Therefor” (BETTA PHARMACEUTICALS CO., LTD, priority 2019, published 2022)

Legend:
[1] = target: Ba/F3-L858R/T790M/C797S (Homo sapiens, UniProt P00533, T790M/C797S/L858R, cells depend on it); experiment: Ba/F3-L858R/T790M/C797S cell proliferation assay (CellTiter Glo, 72 h); type: cell-based; conditions: CTG, numeric values, read-out: BaF3 L858R/T790M/C797S IC50
In short: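 Cells seeded at 2000/well and exposed 72 h to compound at 1000 to 0.2 nM (0.1% DMSO). Viability read by CellTiter-Glo luminescence; IC50 from four-parameter nonlinear regression of signal vs. log concentration.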

[2] = Liver microsomal clearance test, dog; type: in vitro ADME; conditions: Dog liver microsomes, 0.5 mg/mL, NADPH
Description: (§1) Test 3 Liver Microsomal Clearance Test
(§2) 1. Prepare 0.5 mg/mL liver microsome diluent containing K-butter and MgCl2:
(§3) 2.1 Take 356 μL of the liver microsome diluent prepared above and add it to the preset wells of the incubation plate, the number of multiple wells n=1, mark it as the incubation plate.
(§4) 2.2 Take 4 μL of the positive control compound Verapamil (50 μM) and the working solution of the test compound (200 μM) into the above incubation plate containing 356 μL of liver microsome diluent, and mix well (The dilution solvent from the stock solution to the working solution is a mixed solvent of acetonitrile: methanol: water=1:1:2, and the final concentration of DMSO is ≤0.5%),
(§5) 2.3 Place the incubation plate in a 37° C. thermostatic oscillator (at shaking speed of 100 rpm) for pre-incubation with 10 min.
(§6) 2.4 Add 40 μL of 10 mM NADPH (add 40 μL of K-buffer to the wells without NADPH) to each reaction well to start the reaction and start timing.
(§7) 3. Sample collection and treatment:
(§8) 3.1 After adding NADPH to start the reaction, immediately take out 50 μL of the sample and add it to the precipitation plate pre-added with 400 μL of stop solution, and shake on an oscillator at 600 rpm for 5 min at room temperature as a 0 min sample.
(§9) 3.2 At the predetermined time points of 5 min, 15 min and 45 min, take out 50 μL of sample from the incubation plate and add it to the precipitation plate. The subsequent steps were the same as the treatment of 0 min sample. 3.3 After balancing, centrifuge above precipitation plate at 3200 rpm for 10 min at 4° C.
(§10) 3.4 Take 50 μL of the supernatant after centrifugation and add it to pre-added 20% acetonitrile water at appropriate proportion, shake on an oscillator at 600 rpm for 2 min at room temperature, mix well, and put it into the LC-MS/MS sampler for sample injection.
(§11) Analysis of Experimental Data
1. […]

[3] = Liver microsomal clearance test, rat; type: in vitro ADME; conditions: Rat liver microsomes, 0.5 mg/mL, NADPH
Description: as §1, §2, §3, §4, §5, §6, §7, §8, §9, §10, §11
1. […]

Chain of Ba/F3-L858R/T790M/C797S (P00533 whole entry T790M/C797S/L858R): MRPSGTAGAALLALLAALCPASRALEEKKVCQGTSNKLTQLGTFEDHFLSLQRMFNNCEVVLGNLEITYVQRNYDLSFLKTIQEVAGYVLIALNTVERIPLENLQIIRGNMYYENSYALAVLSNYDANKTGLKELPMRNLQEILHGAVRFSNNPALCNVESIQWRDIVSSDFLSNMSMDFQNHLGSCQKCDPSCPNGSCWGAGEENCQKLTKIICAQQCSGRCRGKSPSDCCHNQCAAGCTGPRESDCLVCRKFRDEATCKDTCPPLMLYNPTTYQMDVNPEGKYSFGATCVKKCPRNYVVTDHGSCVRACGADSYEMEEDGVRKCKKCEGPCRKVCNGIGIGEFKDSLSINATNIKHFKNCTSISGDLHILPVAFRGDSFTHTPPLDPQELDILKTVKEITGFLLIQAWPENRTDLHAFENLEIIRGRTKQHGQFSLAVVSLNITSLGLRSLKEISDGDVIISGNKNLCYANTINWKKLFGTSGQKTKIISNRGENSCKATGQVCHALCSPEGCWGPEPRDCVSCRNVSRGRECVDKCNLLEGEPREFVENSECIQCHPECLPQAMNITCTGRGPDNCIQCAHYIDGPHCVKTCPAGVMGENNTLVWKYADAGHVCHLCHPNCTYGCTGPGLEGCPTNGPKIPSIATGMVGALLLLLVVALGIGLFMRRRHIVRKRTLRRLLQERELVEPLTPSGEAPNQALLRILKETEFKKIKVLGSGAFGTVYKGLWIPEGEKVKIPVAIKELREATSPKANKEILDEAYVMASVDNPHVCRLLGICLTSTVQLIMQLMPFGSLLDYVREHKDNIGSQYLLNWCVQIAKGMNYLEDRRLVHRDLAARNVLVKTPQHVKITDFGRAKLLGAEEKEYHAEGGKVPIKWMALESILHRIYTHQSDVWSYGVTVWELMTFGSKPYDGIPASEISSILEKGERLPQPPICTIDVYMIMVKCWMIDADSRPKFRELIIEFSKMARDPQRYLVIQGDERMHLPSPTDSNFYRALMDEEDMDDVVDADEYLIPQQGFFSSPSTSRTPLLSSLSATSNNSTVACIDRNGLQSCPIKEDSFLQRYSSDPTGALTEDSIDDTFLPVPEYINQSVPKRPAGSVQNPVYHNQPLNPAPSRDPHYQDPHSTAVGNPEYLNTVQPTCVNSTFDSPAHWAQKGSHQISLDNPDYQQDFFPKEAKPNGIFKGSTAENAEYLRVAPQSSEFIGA

- GI50 [1]: 2.1 nM
- Instrinsic clearance of liver microsomal protein, CLint [2]: 1 μL/min/mg proteins
- Instrinsic clearance of liver microsomal protein, CLint [3]: 4 μL/min/mg proteins
Compound: COc1cc(N2CCC(N3CCN(C)CC3)CC2)c(-c2cnn(C)c2)cc1Nc1ncc(Cl)c(Nc2ccc3nccnc3c2P(C)(C)=O)n1 [Compound 1, (6-((5-Chloro-2-((2-methoxy-5-(1-methyl-1hydro-pyrazol-4-yl)-4-(4-(4-methylpiperazine-1-yl)piperidin-1-yl)phenyl)amino)pyrimidin-4-yl)amino)quinoxalin-5-yl)dimethylphosphine oxide]
